# Results as given in patent publication US10933032B2, “Methods for the treatment of cancer using coenzyme Q10 combination therapies” (Berg LLC, priority 2013, dated 2021).
# “Also recorded” adds a separate entry of the source.
# How the values were obtained:
# [1] = tested on: MIAPaCa-2 pancreatic cancer cells; format: cell-based; details: CoQ10 (100 μM) pre-treatment (6 hours) and co-treatment regimen, FIGS. 11-14
# in vivo = details: rat, rats, given three times per week for 4 weeks
# MCF-7 = experiment: Induction of early apoptosis (Bcl-2, annexin V, or caspase activation); format: cell-based; details: BREAST: MCF-7
# Description: The effects of Coenzyme Q10 treatment on a variety of oncogenic and normal cell lines were examined and compared. The sensitivity of cells to Coenzyme Q10 was assessed by monitoring induction of apoptosis. CoQ10 treatment of cells was carried out as described in detail below in the Materials and Methods. Induction of apoptosis was assessed in the treated cells by monitoring indicators of early apoptosis (e.g., Bcl-2 expression, caspase activation and by using annexin V assays) as described below. From these studies, the minimal CoQ10 dosage, e.g., concentration of CoQ10 and time of treatment, required to induce apoptosis in the panel of cell lines was determined.
# Cells were cultured in T-75 flasks with relevant medium supplemented with 10% Fetal Bovine Serum (FBS), 1% PSA (penicillin, streptomycin, amphotericin B) (Invitrogen and Cellgro) in a 37° C. incubator with 5% CO2 levels until 70-80% confluence was reached. To harvest cells for treatment, flasks were primed with 1 mL Trypsin, aspirated, trypsinized with an additional 3 mL, and incubated at 37° C. for 3-5 minutes. Cells were then neutralized with an equal volume of media and the subsequent solution was centrifuged at […] for 8 minutes. The supernatant was aspirated and the cells were resuspended with 8.5 ml of media. A mixture of 500 ul of the resuspension and 9.5 ml of […] was read twice by a coulter counter and the appropriate number of cells to be seeded into each dish was determined. Control and concentration ranging from 0-200 μM groups were examined in triplicate. From a 500 μM CoQ-10 stock solution, serial dilutions were performed to achieve desired experimental concentration in appropriate dishes. Dishes were incubated in a 37° C. incubator with 5% CO2 levels for 0-72 hours depending on cell type and experimental protocol.
# Following cell treatment incubation period was complete, protein isolation was performed. Dishes of all treatment groups were washed twice with 2 ml, and once with 1 ml of ice cold 1× Phosphate Buffered Saline (PBS). The PBS was aspirated from the dishes after the initial 2 washes only. Cells were gently scraped and collected into microcentrifuge tubes using the final volume from the third wash and centrifuged at 10,000 rpm for 10 minutes. After centrifugation, the supernatant was aspirated and the pellet was lysed with 50 uL of lysis buffer (1 uL of protease and phosphotase inhibitor for every 100 uL of lysis buffer). Samples were then frozen overnight at −20° C.
# After the cell treatment incubation period was complete, protein isolation was performed. Flasks of all treatment groups were washed twice with 5 mL, and once with 3 mL of ice cold 1×PBS. The PBS was aspirated from the flasks after the first 2 washes only. Cells were gently scraped and collected into 15 mL centrifuge tubes using the final volume from the third wash and centrifuged for at 10,000 rpm for 10 minutes. After centrifugation, the supernatant was aspirated and the pellet was lysed with an appropriate amount of lysis buffer (1 uL of protease and phosphotase inhibitor for every 100 uL of lysis buffer). Lysis buffer volume was dependent on pellet size. Samples were transferred in microcentrifuge tubes and frozen overnight at −20° C.
# Samples were thawed at […] and sonicated to ensure homogenization the day following protein isolation. Protein quantification was performed using the micro BCA protein assay kit (Pierce). To prepare samples for Immuno-blotting, a 1:19 solution of betamercaptoethanol (Sigma) to sample buffer (Bio-Rad) was prepared. Samples were diluted 1:1 with the betamercaptoethanol-sample buffer solution, boiled at 95° C. for 5 minutes, and frozen overnight at −20° C.
# The volume of sample to load per well was determined using the raw mean concentration of protein obtained from the BCA protein assay. Approximately 30-60 μg of protein were loaded for each treatment time point. […]
# [2] = tested on: MDA-MB213 breast cancer cells; experiment: Basal oxygen consumption rate (OCR) and extracellular acidification rate (ECAR); format: cell-based; details: 100 μM CoQ10 for 24 hours, FIG. 17
# Description: Cells were treated with 100 μM CoQ10 for 24 hours.
# Mitochondria represent a significant source of ROS which are known to participate in activation of cell death pathways.
# cells = experiment: Relative timing of CoQ10 and chemotherapeutic agents, cell killing in vitro (Example 7); format: cell-based; details: Example 7, written in present tense
# Description: Using the methods in Example 6, cells are tested to determine if the relative timing of treatment of cells with CoQ10 and chemotherapeutic agents has an effect on cell killing, e.g., by promotion of apoptosis, induction of tumor lysis, inhibition of cell proliferation.
# Briefly, cells are cultured as in Example 6. Cells are treated with CoQ10 and chemotherapeutic agents, either alone or in combination, or with appropriate vehicle controls. For the cells treated with both CoQ10 and chemotherapeutic agents, the cells are contacted with the CoQ10 and chemotherapeutic agents in various sequences. Various concentrations of CoQ10 and chemotherapeutic agents are used. Various treatment times are also used.
# After treatment with CoQ10 and chemotherapy as indicated, cells are harvested and assayed for viability and apoptosis using the methods provided above. […] The metabolic switch effectuated by CoQ10 in cancer cells is associated with induction of a novel integrated signaling cross-talk involving TP53, Bcl-2/Bax and VEGF that results in the recapitulation of apoptotic pathways.
# [3] = tested on: MIAPaCa-2, SKOV-3, PC-3, HT-29, MCF7, MDA-MB231, SKBR-3, A549, Hep3B cancer cells; experiment: In vitro CoQ10 monotherapy of various cancer cell types; format: cell-based; details: 100 μM CoQ10 for 48-72 hours; FIG. 16
# Description: Cells were treated with 100 μM CoQ10 for 48-72 hours.
# [4] = tested on: MIAPaCa-2 human pancreatic tumor cells; experiment: Xenogeneic mouse human pancreatic cancer model, tumors harvested at mortality (size, weight, vasculature, palpation); format: in vivo, NOD scid gamma (NSG) mice
# [5] = tested on: MIAPaCa-2 human pancreatic tumor cells; experiment: Xenogeneic mouse human pancreatic cancer model, survival; format: in vivo, NOD scid gamma (NSG) mice; details: for Survival (prolongation of life) compared to untreated control: Example 1, Regimen 1, single agent: IV 4% Coenzyme Q10 50 mg/kg/day, or IV gemcitabine 150 mg/kg/week for 3 weeks with one week rest; for Survival, combination of CoQ10 and gemcitabine vs other groups: Example 1, Regimen 1: IV CoQ10 50 mg/kg/day + IV gemcitabine 150 mg/kg weekly for 3 weeks with one week rest
structure (smiles),measurement,setting,value
"COC1=C(OC)C(=O)C(C/C=C(\C)CC/C=C(\C)CC/C=C(\C)CC/C=C(\C)CC/C=C(\C)CC/C=C(\C)CC/C=C(\C)CC/C=C(\C)CC/C=C(\C)CCC=C(C)C)=C(C)C1=O [CoQ10, Coenzyme Q10]",Cytotoxic potential of gemcitabine,[1],augmented the cytotoxic potential of gemcitabine
same,MTD at 4 weeks,in vivo,250 mg/kg
same,"Indication of Early apoptosis (Bcl-2, annexin V, or caspase activation)",MCF-7,Strong
same,"Minimal CoQ10 concentration required for induction of early apoptosis, Concentration",MCF-7,50 µM
same,"Minimal treatment time required for induction of early apoptosis, Time",MCF-7,48 h
same,Ratio of OCR to ECAR,[2],higher ratio of OCR to ECAR
same,"Cell killing, pretreatment with CoQ10, discontinuation, then chemotherapy",cells,also effective in cell killing
same,"Cell killing, pretreatment with CoQ10 followed by concurrent CoQ10 and chemotherapy",cells,effective in cell killing
same,"Cell killing, pretreatment with CoQ10 prior to chemotherapy",cells,more effective in cell killing than co-treatment with CoQ10 and chemotherapy or treatment with CoQ10 after chemotherapy
same,Cell death in cancer cells,[3],increased cell death
same,Growth of pancreatic tumors (tumor size at time of death) vs control,"[4]; Example 1, single agents: Group 2 Coenzyme Q10 IV 50 mg/kg/day, Group 3 gemcitabine 150 mg/kg/week, FIG. 2",inhibited the growth of pancreatic tumors; also recorded: inhibits pancreatic tumor growth
same,Tumor vasculature (histological analysis),"[4]; Example 1, intravenous Coenzyme Q10 vs untreated control mice, not quantified",decreased tumor vasculature; also recorded: decrease in the amount of vasculature in pancreatic tumors
same,"Tumor weight / tumor growth, combination of Coenzyme Q10 and gemcitabine (Group 4)","[4]; Example 1, vs Coenzyme Q10 alone or gemcitabine alone, FIG. 3",significantly smaller than tumors from mice treated with Coenzyme Q10 alone; also recorded: more effective at inhibiting the growth of pancreatic tumors in mice than treatment with either agent alone
same,"Tumor weight at mortality, Coenzyme Q10 alone (Group 2)","[4]; Example 1, vs control group and gemcitabine treated group, FIG. 3",significantly smaller than tumors from mice in the control group
same,Survival rate (survival probability) at 300 days,"[5]; 50 mg/kg CoQ10, FIG. 30",lowest survival rate
same,Survival rate (survival probability) at 300 days,"[5]; 100 mg/kg CoQ10, FIG. 30",between the other two treatment groups
same,Survival rate (survival probability) at 300 days,"[5]; 200 mg/kg CoQ10, FIG. 30",highest survival rate
same,"Survival, pretreatment with CoQ10 for sixty days followed by gemcitabine+CoQ10","[5]; CoQ10 200 mg/kg, vs gemcitabine+CoQ10 from the start, gemcitabine or CoQ10 alone, FIG. 31",improved survival in comparison to treatment with gemcitabine+CoQ10 from the start of the treatment regimen; also recorded: improved survival outcomes
same,Survival rate (survival probability) at 200 days,"[5]; CoQ10 60 days prior to start of gemcitabine and continuing with CoQ10, FIG. 31",highest survival rate
same,"Responses associated with favorable therapeutic endpoints, most notably an increase in survival","[5]; CoQ10 alone or CoQ10 in combination with doxorubicin, vs gemcitabine or doxorubicin",more effective than gemcitabine or doxorubicin
same,Survival rate (survival probability) at 200 days,"[5]; CoQ10 from the start (alone), FIG. 31",next highest survival rate
same,Survival (prolongation of life) compared to untreated control,[5]; FIG. 1,prolongation of life as compared to untreated control
same,Survival (prolongation of life) compared to untreated control,"[5]; FIG. 1, listed as Coenzyme Q10",increases survival time of the mice
same,"Survival, combination of CoQ10 and gemcitabine vs other groups",[5]; FIG. 1,prolonged survival and long-term remission that was statistically significant compared to other groups
same,"Survival, combination of CoQ10 and gemcitabine vs other groups","[5]; FIG. 1, listed as Coenzyme Q10",more effective at increasing survival time in mice bearing pancreatic tumors than treatment with either agent alone
same,"Impact on survival, CoQ10 alone vs gemcitabine alone","[5]; Example 1, Regimen 1: IV CoQ10 50 mg/kg/day vs gemcitabine 150 mg/kg/week, FIG. 1",significantly greater impact on survival than gemcitabine alone
same,"Survival, CoQ10 alone","[5]; Example 2, Regimen 2: 4% CoQ10 intravenous formulation 50 mg/kg intraperitoneally twice daily, 3 weeks with one week rest, vs untreated or gemcitabine alone, FIG. 4",increase in survival
same,"Survival, CoQ10 in combination with gemcitabine","[5]; Example 2, Regimen 2: CoQ10 50 mg/kg IP twice daily + gemcitabine 150 mg/kg once per week, vs untreated or gemcitabine alone, FIG. 4",increase in survival
same,"Survival (viability, mortality), CoQ10 in combination with doxorubicin vs doxorubicin alone","[5]; Example 4, once daily dosing with intravenous CoQ10, FIG. 7",decreased mortality rates
same,"Survival, Coenzyme Q10 alone vs control animals","[5]; Example 5, Regimen 3: IP 4% CoQ10 intravenous formulation 50 or 75 mg/kg/dose, 3 times daily, FIG. 8",significantly increased survival as compared to control animals
same,"Survival, combination of Coenzyme Q10 and gemcitabine vs same dose of Coenzyme Q10 alone","[5]; Example 5, Regimen 3: IP CoQ10 50 or 75 mg/kg/dose 3 times daily + IV gemcitabine 150 mg/kg weekly for 3 weeks with one week rest, FIG. 8",increased survival as compared to mice treated with the same dose of Coenzyme Q10 alone
same,"Survival, pretreatment with CoQ10 followed by gemcitabine vs co-treatment regimen","[5]; Example 11, IP CoQ10 75 mg/kg/dose 3 times daily, gemcitabine 150 mg/kg weekly initiated 1-3 weeks later, early time points, FIG. 15",improved survival
same,"Survival, CoQ10 + gemcitabine vs untreated control","[5]; Example 11, latest time point, FIG. 15",increases the survival in a statistically significant manner as compared to untreated control
same,"Survival, dose dependence","[5]; Example 17, Regimen 3: 50 mg/kg or 75 mg/kg, FIG. 29",dose dependent increase in survival
same,Effect on survival when combined with gemcitabine,"[5]; Example 17, Regimen 3, FIG. 29",additive effect to gemcitabine
same,"Survival rates, continuous infusion of CoQ10 vs three doses (50 mg/kg or 75 mg/kg)","[5]; Example 17, best outcomes at 200 mg/kg, FIG. 30",significantly improved survival rates compared to three doses
same,"Survival, continuous infusion of CoQ10 at 200 mg/kg vs 50 mg/kg",[5]; FIG. 30,significantly improved survival in comparison to 50 mg/kg CoQ10
same,Survival rate (survival probability) at 200 days,"[5]; gemcitabine and CoQ10 from the start, FIG. 31",next highest survival rate
